Test results published in patent US11214578B2, “Urea/carbamates FAAH MAGL or dual FAAH/MAGL inhibitors and uses thereof” (Northeastern University, priority 2014, dated 2022).
pIC50: −log10 of the molar value.

Assays:
Format in all cases: biochemical
ΔTM rat FAAH = molecular target: T1, ΔTM rat FAAH (Rattus norvegicus, UniProt P97612); assay: Fluorescent assay protocol for ΔTM rat FAAH (AAMCA substrate); conditions: 15 min preincubation, read-out: IC50 rFAAH
T1 construct: Preparation of Transmembrane Domain-Deleted Rat FAAH (ΔTM rFAAH); made in house; host or cells: E. coli
T1 sequence (P97612 30-579 limits assumed): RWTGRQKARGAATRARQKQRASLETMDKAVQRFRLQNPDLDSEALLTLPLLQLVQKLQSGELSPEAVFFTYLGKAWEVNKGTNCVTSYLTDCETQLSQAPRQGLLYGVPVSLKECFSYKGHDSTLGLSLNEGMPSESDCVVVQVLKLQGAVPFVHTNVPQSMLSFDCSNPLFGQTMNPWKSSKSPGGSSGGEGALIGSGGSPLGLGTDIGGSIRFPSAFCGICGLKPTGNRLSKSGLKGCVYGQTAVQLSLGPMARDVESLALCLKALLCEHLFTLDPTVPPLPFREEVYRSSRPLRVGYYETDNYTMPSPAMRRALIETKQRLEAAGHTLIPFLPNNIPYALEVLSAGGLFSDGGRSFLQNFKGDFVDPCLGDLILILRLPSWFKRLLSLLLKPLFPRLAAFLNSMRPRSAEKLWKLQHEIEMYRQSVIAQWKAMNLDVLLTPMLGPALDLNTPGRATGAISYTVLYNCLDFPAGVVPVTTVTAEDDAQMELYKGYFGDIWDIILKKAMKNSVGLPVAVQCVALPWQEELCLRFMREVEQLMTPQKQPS
Protocol: Procedure was followed as described for hMAGL, except that arachidonoyl-methyl coumarin amide (AAMCA) was used as fluorigenic substrate. […] For the screening assay, 3 concentrations (1 μM, 10 μM, and 100 μM) of test compounds, 15 μg of ΔTM rFAAH and assay buffer were pre-incubated for 15 min at 25° C. […] The fluorescence reading at the 3 hour time point (linear enzyme kinetics) was used to calculate percent inhibition based on control assays without inhibitor present. All FAAH assays were performed in triplicate for each inhibitor concentration, and IC50 values determined using Prizm software (GraphPad Software, Inc.).

Human MAGL (hMAGL) = molecular target: T2, Human MAGL (hMAGL) (Homo sapiens, UniProt Q99685); assay: Fluorescent assay protocol for hMAGL (AHMMCE substrate); conditions: recombinant human MAGL, AHMMCE substrate, 15 min preincubation; read-out: IC50 hMAGL
T2 construct: hexahistidine; made in house; host or cells: E. coli
T2 sequence (Q99685 1-303): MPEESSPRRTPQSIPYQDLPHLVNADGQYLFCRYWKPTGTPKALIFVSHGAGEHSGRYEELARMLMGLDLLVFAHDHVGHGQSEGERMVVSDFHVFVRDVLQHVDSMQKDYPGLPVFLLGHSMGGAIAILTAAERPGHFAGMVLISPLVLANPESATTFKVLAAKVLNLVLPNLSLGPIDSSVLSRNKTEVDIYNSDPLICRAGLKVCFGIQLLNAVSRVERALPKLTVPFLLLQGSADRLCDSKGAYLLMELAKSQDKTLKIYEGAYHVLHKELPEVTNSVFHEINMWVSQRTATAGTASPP
Protocol: (§1) This medium throughput assay involved a 96-well plate format in which hMAGL activity was monitored by the hydrolysis of the substrate 7-hydroxy-6-methoxy-4-methylcoumarin ester (AHMMCE) to form the fluorescent product, coumarin. […] Upon the addition of AHMMCE, the reaction was incubated at 25° C. for 120 min; fluorescence readings were taken every 15 min at 360 nm/460 nm (λexcitation/λemission) using a Synergy HT Plate Reader (Bio-Tek, Winooski, Vt.). […] External standards were used to convert relative fluorescence units to the amount of 4-methylcoumarin formed. All MAGL assays were performed in triplicate for each inhibitor concentration, and IC50 values were calculated using Prizm software (GraphPad Software, Inc., San Diego, Calif.).

Rat MAGL (rMAGL) = molecular target: T3, Rat MAGL (rMAGL) (Rattus norvegicus, UniProt Q8R431); assay: Fluorescent assay protocol for rMAGL; conditions: recombinant rat MAGL, procedure as for hMAGL; read-out: IC50 rMAGL
T3 construct: made in house; host or cells: E. coli
T3 sequence (Q8R431 1-303): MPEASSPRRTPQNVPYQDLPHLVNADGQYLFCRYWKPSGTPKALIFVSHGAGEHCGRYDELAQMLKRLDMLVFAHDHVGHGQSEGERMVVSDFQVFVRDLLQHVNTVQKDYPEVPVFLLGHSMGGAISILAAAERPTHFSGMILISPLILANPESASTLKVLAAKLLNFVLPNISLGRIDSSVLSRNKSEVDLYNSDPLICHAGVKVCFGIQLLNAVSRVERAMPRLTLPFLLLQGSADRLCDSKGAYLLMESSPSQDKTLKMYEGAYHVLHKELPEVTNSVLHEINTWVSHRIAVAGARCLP
Protocol: as §1
Procedure was followed as described for hMAGL.

Human FAAH (MBPΔTMhFAAH) = molecular target: T4, Human FAAH (MBPΔTMhFAAH) (Homo sapiens, UniProt O00519); assay: Fluorescent assay protocol for hFAAH; conditions: human FAAH (MBP fusion, ΔTM), procedure as for rFAAH
T4 construct: made in house; host or cells: E. coli (pMALcE4 vector)
T4 sequence (O00519 30-579 limits assumed): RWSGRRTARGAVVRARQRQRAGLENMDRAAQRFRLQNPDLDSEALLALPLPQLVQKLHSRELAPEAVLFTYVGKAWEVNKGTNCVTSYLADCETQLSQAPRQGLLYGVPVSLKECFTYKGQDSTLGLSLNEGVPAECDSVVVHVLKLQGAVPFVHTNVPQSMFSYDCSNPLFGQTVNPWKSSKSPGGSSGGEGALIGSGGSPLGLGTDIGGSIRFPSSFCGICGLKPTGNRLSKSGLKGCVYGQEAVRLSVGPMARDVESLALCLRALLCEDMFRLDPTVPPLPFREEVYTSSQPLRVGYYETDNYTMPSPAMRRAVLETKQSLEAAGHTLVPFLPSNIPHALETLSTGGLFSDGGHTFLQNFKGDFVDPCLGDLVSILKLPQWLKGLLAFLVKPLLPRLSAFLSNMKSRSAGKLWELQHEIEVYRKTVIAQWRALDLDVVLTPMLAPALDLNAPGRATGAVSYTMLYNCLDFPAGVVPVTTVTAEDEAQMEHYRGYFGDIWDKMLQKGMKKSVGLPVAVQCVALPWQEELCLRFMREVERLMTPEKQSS
Protocol: Human FAAH without putative transmembrane domain following maltose binding protein was expressed in E. coli cells using pMALcE4 vector Alapafuja et al J. Med. Chem. (2012) 55: 10074-89.
Procedure was followed as described for hMAGL, except that arachidonoyl-methyl coumarin amide (AAMCA) was used as fluorigenic substrate. Compounds were diluted in 50:50 DMSO/assay buffer (50 mM HEPES, 1 mM EDTA, 0.1% BSA, pH 7.4) so as to have a final DMSO concentration below 8% in each reaction. For the screening assay, 3 concentrations (1 μM, 10 μM, and 100 μM) of test compounds, 15 μg of ΔTM rFAAH and assay buffer were pre-incubated for 15 min at 25° C. AAMCA (20 μM, 2×Km) was added prior to incubation at 25° C. and kinetic fluorescence reading every 20 minutes (λex=360/λem=460) for 4 hours on a BioTek Synergy HT Microplate Reader (BioTek Instruments, Winooski, Vt.). The fluorescence reading at the 3 hour time point (linear enzyme kinetics) was used to calculate percent inhibition based on control assays without inhibitor present. All FAAH assays were performed in triplicate for each inhibitor concentration, and IC50 values determined using Prizm software (GraphPad Software, Inc.).
Procedure was followed as described for rFAAH.

Structure (SMILES) | pIC50 (ΔTM rat FAAH) | pIC50 (Human MAGL (hMAGL)) | pIC50 (Rat MAGL (rMAGL)) | pIC50 (Human FAAH (MBPΔTMhFAAH))
O=C(N1CCN(C(c2ccc(F)cc2)c2ccc(F)cc2)CC1)n1cnc(-c2ccccc2)c1 [Example 29, (4-(bis(4-fluorophenyl)methyl)piperazin-1-yl)(4-phenyl-1H-imidazol-1-yl)methanone] | 6.00 to 6.96 | < 6.00 | < 6.00 | 6.00 to 6.96
O=C(N1CCN(C(c2ccccc2)c2ccccc2)CC1)n1cnc(-c2ccccc2)c1 [Example 30, (4-benzhydrylpiperazin-1-yl)(4-phenyl-1H-imidazol-1-yl)methanone] | < 6.00 | < 6.00 | < 6.00 | 6.00 to 6.96
CC(c1ccccc1)N1CCN(C(=O)Oc2cccc(C#N)c2)CC1 (centres unmarked) [Example 36, 3-cyanophenyl 4-(1-phenylethyl)piperazine-1-carboxylate] | 7.00 to 8.00 | < 6.00 | < 6.00 | 7.00 to 8.00
N#Cc1cc(O)cc(OC(=O)N2CCN(C(c3ccccc3)c3ccccc3)CC2)c1 [Example 38, 3-cyano-5-hydroxyphenyl 4-benzhydrylpiperazine-1-carboxylate] | 6.00 to 6.96 | < 6.00 | < 6.00 | 6.00 to 6.96
O=C(Oc1cccc(Cl)n1)N1CCN(C(c2ccccc2)c2ccccc2)CC1 [Example 39, 6-chloropyridin-2-yl 4-benzhydrylpiperazine-1-carboxylate] | 6.00 to 6.96 | < 6.00 | < 6.00 | 6.00 to 6.96
N#Cc1ccnc(OC(=O)N2CCN(C3c4ccccc4-c4ccccc43)CC2)c1 [Example 42, 4-cyanopyridin-2-yl 4-(9H-fluoren-9-yl)piperazine-1-carboxylate] | < 6.00 | 7.00 to 8.00 | 7.00 to 8.00 | < 6.00
N#Cc1cccnc1OC(=O)N1CCN(C2c3ccccc3-c3ccccc32)CC1 [Example 43, 3-cyanopyridin-2-yl 4-(9H-fluoren-9-yl)piperazine-1-carboxylate] | < 6.00 | 7.00 to 8.00 | 7.00 to 8.00 | < 6.00

Results, then the compound that gave them:

pIC50 (ΔTM rat FAAH) | pIC50 (Human MAGL (hMAGL)) | pIC50 (Rat MAGL (rMAGL)) | pIC50 (Human FAAH (MBPΔTMhFAAH)) | Structure (SMILES)
7.00 to 8.00 | < 6.00 | < 6.00 | 7.00 to 8.00 | O=C(N1CCN(C(c2ccccc2)c2ccccc2)CC1)n1nnnc1Cc1ccccc1 [Example 31, (4-benzhydrylpiperazin-1-yl)(5-benzyl-1H-tetrazol-1-yl)methanone]
6.00 to 6.96 | < 6.00 | < 6.00 | 6.00 to 6.96 | O=C(N1CCN(C(c2ccc(F)cc2)c2ccc(F)cc2)CC1)n1nnnc1Cc1ccccc1 [Example 32, (5-benzyl-1H-tetrazol-1-yl)(4-(bis(4-fluorophenyl)methyl)piperazin-1-yl)methanone]
< 6.00 | < 6.00 | < 6.00 | < 6.00 | COC(=O)c1ncn(C(=O)N2CCC(OC(c3ccc(F)cc3)c3ccc(F)cc3)CC2)n1 [Example 33, (3-(Carbomethoxy)-1H-1,2,4-triazol-1-yl)(4-(bis(4-fluorophenyl)methyoxy)pipe-ridin-1 yl)methanone]
7.00 to 8.00 | < 6.00 | < 6.00 | 7.00 to 8.00 | O=C1CC2(CCC(C(=O)n3cnc(Br)c3)CC2)Oc2ccccc21 (centres unmarked) [Example 34, 4′-(4-bromo-1H-imidazole-1-carbonyl)spiro[chromane-2,1′-cyclohexan]-4-one]
7.00 to 8.00 | < 6.00 | < 6.00 | 7.00 to 8.00 | N#Cc1ccc(F)c(OC(=O)N2CCC(Cc3ccccc3)CC2)c1 [Example 45, 5-Cyano-2-fluorophenyl 4-benzylpiperidine-1-carboxylate]
7.00 to 8.00 | < 6.00 | < 6.00 | 7.00 to 8.00 | N#Cc1cccc(OC(=O)N2CCC(=C(c3ccccc3)c3ccccc3)CC2)c1 [Example 47, 3-cyanophenyl 4-(diphenylmethylene)piperidine-1-carboxylate]
6.00 to 6.96 | < 6.00 | < 6.00 | 7.00 to 8.00 | COC(=O)c1cccc(OC(=O)N2CCC(=C(c3ccccc3)c3ccccc3)CC2)c1 [Example 48, 3-(methoxycarbonyl)phenyl 4-(diphenylmethylene)piperidine-1-carboxylate]
7.00 to 8.00 | 7.00 to 8.00 | 7.00 to 8.00 | 7.00 to 8.00 | N#Cc1cccc(OC(=O)N2CCC(OC(c3ccc(Cl)cc3)c3cccnc3Cl)CC2)c1 (centres unmarked) [Example 53, 3-cyanophenyl 4-((4-chlorophenyl)(2-chloropyridin-3-yl)methoxy)piperidine-1-carboxylate]
6.00 to 6.96 | 6.00 to 6.96 | 6.00 to 6.96 | 7.00 to 8.00 | O=C(Oc1cccc(Cl)n1)N1CCC(C(c2ccccc2)c2ccccc2)CC1 [Example 54, 6-Chloropyridin-2-yl 4-(benzhydryl)piperidine-1-carboxylate]
7.00 to 8.00 | 7.00 to 8.00 | 6.00 to 6.96 | 7.00 to 8.00 | COC(=O)c1cccc(OC(=O)N2CCC(OC(c3ccccc3)c3ccccc3)CC2)c1 [Example 55, 3-(methoxycarbonyl)phenyl 4-(benzhydryloxy)piperidine-1-carboxylate]
